Experiments:
[1] = target: T1, human melanocortin receptor 4 (MC4R) (Homo sapiens, UniProt P32245); assay: Luciferase functional assay; format: cell-based; conditions: agonistic efficacy against MCR4; functional assay not specified (luciferase or cAMP)
T1 construct: expressed in transfected cells
Description: Cell lines expressing human melanocortin receptor 4 (MC4R) were dissociated from tissue culture dishes by rinsing with Ca^++, Mg^++ free DPBS, treated with 1× Trypsin/EDTA solution for 1 min at 37° C., and resuspended with DMEM (GIBCO-BRL) supplemented with 10% FBS. The cells were counted and diluted with DMEM supplemented with 10% FBS and 200 ug/ml of Geneticin to 5×10^5 cells/ml. 90 ul of cell suspension was plated onto each well of 96-well black and clear bottom culture plates (Costar). After the incubation for 24 h in the atmosphere of 6% CO2 at 37° C., 10 ul of NDP- -MSH and test compounds diluted in DMSO were added to each well. The final DMSO concentration was 1%. After 4 h of incubation in the atmosphere of 6% CO2 at 37° C., 50 ul of Bright-Glo (Promega) was added to each well. Luciferase activity was measured by using L-Max luminometer (Molecular Device). The amount of luciferase activity induced by treatment with NDP- -MSH was defined as 100% to obtain the relative efficacy of test compounds. The EC0.5 MSH was defined as the concentration of test compounds that results in half maximal activity of NDP- -MSH. The EC50 was defined as the concentration of test compound that results in half maximal activity of its own.

[2] = target: T1, human melanocortin receptor 4 (MC4R); assay: Membrane fraction binding assay (125I-NDP-MSH competition); conditions: binding affinity against MCR4
Description: The membrane fraction binding assay was used to identify competitive inhibitors of ^125I-NDP- -MSH binding to cloned human MCRs expressed in HEK cells.
Cell lines expressing human melanocortin receptor 4 (MC4R) were grown in Φ150 mm culture dishes in DMEM (GIBCO-BRL) supplemented with 10% FBS, 200 ug/ml Geneticin (GIBCO-BRL), and antibiotics (penicillin and streptomycin) (GIBCO-BRL) in an atmosphere of 6% CO2 at 37° C. When the cells were fully grown, the cells were washed once with 10 ml of Ca^++, Mg^++ free DPBS. The cells were incubated with 8 ml of Ca^++, Mg^++ free DPBS for 15-30 min at 37° C. until the cells were easily detached by triturating with pipette. The cells were harvested into 50 ml of conical tubes, and spun at 1500 rpm for 5 min. The supernatant was discarded, and the cells were resuspended in 8 ml of Ca^++, Mg^++ free DPBS, and spun at 1500 rpm for 5 min. The supernatant was discarded, and pellets were resuspended in 3 ml of membrane preparation buffer (50 mM Tris, pH 7.2˜7.4, 4 ug/ml Leupeptin; 10 uM Phosphoramidon; 40 ug/ml Bacitracin; 5 ug/ml Aprotinin; 10 mM Pefabloc). The pellets were homogenized with dounce homogenizer (Bellco with type “B” glass pestle) using 10-12 strokes. The homogenate was centrifuged (Beckman XL-100K Ultracentrifuge, Rotor 45 Ti, 50 ml centrifuge tube) at 40,000 rpm (100,000×g) for 30 min at 4° C. The pellets were resuspended in 20 ml of membrane preparation buffer, and protein was determined by BCA assay kit (PIERCE). Aliquots were placed in tubes and stored at −80° C.
Membrane fraction was diluted with membrane binding buffer to make final 600 ug/ml, and 50 ul of membrane fraction containing 30 ug of membrane protein was added onto each well of 96-well assay plate. 25 ul of test compounds or 20 uM unlabelled NDP- -MSH (to make the final concentration at 5 uM) diluted with membrane binding buffer was added onto each well of 96-well assay plate. […] The top was sealed, and the radioactivity was quantitated in a Packard Topcount Microplate Scintillation Counter. […]

T1 sequence (P32245 whole entry): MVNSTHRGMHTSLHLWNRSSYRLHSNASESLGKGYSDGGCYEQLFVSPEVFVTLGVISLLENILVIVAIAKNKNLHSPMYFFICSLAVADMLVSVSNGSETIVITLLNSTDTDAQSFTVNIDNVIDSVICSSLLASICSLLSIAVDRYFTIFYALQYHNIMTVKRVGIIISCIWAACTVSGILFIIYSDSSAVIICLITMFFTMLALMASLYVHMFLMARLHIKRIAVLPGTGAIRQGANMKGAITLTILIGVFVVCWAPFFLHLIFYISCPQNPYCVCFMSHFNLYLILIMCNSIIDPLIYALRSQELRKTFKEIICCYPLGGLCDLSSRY

## CC(C)C(=O)N(C1CCCCC1)[C@H]1CCN(C(=O)[C@H](N)Cc2ccc(Cl)cc2)C1 [Example 1]
[1]
  EC50: 5 to 500 nM
[2]
  IC50: 100 to 500 nM

## CC(C)C(=O)N(C1CCCCC1)[C@H]1CCN(NC(=O)[C@@H](Cc2ccc(Cl)cc2)NC[C@H]2CCCN2)C1 [Example 3, (2R)-2-{[(2R)-pyrrolidine-2-yl]methyl}amino-N-{(3S)-3-[cyclohexyl(isobutyryl)amino]pyrrolidine-1-yl}-3-(4-chlorophenyl)propionamide 2TFA]
[1]
  EC50: 5 to 500 nM
[2]
  IC50: 100 to 500 nM

## CC(C)C(=O)N(C1CCCCC1)[C@H]1CCN(C(=O)[C@@H](Cc2ccc(Cl)cc2)NC(=O)[C@H]2CCCN2)C1 [Example 2]
[1]
  EC50: 5 to 500 nM
[2]
  IC50: 100 to 500 nM

From US7989634B2, “Melanocortin receptor agonists” (LG Life Sciences Ltd., priority 2003, dated 2011)
